Data from patent US6900318B1, “1,4,5,6-tetrahydropyrimidine derivative as a vitronectin inhibitor” (Aventis Pharma Deutscland GmbH, priority 1999, dated 2005).

Tested on: thyroparathyroidectomized (TPTX) rats
Experiment: PTH-induced hypercalcemia in the TPTX rat model of bone resorption
Format: in vivo
Details: PTH treated TPTX male Sprague Dawley rats; perorally twice at 10 mg/kg (time 0 and 3 h after start of PTH infusion); serum at 6 hours
Description: 9) Pharmacological Testing: PTH-Induced Hypercalcemia in the TPTX Rat Model of Bone Resorption
In this in vivo model a stimulation of bone resorption is induced in thyroparathyroidectomized (TPTX) rats by the infusion of parathyroid hormone (PTH). The changes in bone resorption are monitored by measuring the serum calcium concentration which is directly related to the extent of bone resorption.
Male Sprague Dawley rats (OFA-IFFA CREDO, France) weighting 150-200 g were thyroparathyroidectomized by the supplier. The rats were allowed free access to a standard commercial pelleted diet containing 7 g Ca/kg (UAR) and Eau de Volvic water. The success of thyroparathyroidectomy was tested by measuring serum calcium concentrations 8 days after operation in overnight fasted animals. Rats were considered as TPTX when the serum calcium level was <80 mg/l.
For treatment with PTH, rat PTH(1-34) (Bachem) was dissolved in 0.15 M sodium chloride solution containing 2% Cys-HCl and delivered via osmotic minipumps (ALZET 2001 D) at 200 pmol/kg/h. […]
Serum total calcium concentrations (=calcemia) were measured […] (Ciba-Corning) using a IEMS Labsystems microplate reader at 540 nm. The differences between the mean values of calcemia in the groups were analysed for variance and by Dunnett's test. The activity of the test compound was calculated as % effect according to the formula: [formula]

CCOC(=O)[C@H](CNC(=O)c1ccc(CCC(=O)NC2=NCCCN2)cc1)NS(=O)(=O)c1cccc2ccccc12.O=C(O)/C=C/C(=O)O [compound of formula I, ethyl (2S)-2-(naphthalene-1-sulfonylamino)-3-(4-(2-(1,4,5,6-tetrahydropyrimidin-2-ylcarbamoyl)ethyl)benzoylamino)propionate hemifumarate]
% effect on serum total calcium concentration (calcemia): −45%
